Values of other authors as cited in patent US20030139466A1, “Methods for pretreating a subject with extracorporeal photopheresis” (priority 2001, published 2003).

Key:
monocytes = conditions: plasma containing 8-methoxypsoralen and exposure to ultraviolet-A light (photopheresis)
[1] = test system: heart transplantation patients

Row | SMILES | cytokine release (monocytes) | One-year actuarial survival [1] [%] | patients who experience no rejection ([1]; initial postoperative period) [%]
1 | COc1c2occc2cc2ccc(=O)oc12 [8-methoxypsoralen, 9-methoxy-7H-furo[3,2-g][1]-benzopyran-7-one] | releases tumor necrosis factor-alpha, IL-1, IL-6, and possibly IL-8 | – | –
2 | Cn1cnc([N+](=O)[O-])c1Sc1ncnc2nc[nH]c12 [azathioprine] | – | 60 | < 10
